Test results as given in US20260337176A1, “AUTOPHAGY REGULATOR AND USE THEREOF” (SHENZHEN INSTITUTES OF ADVANCED TECHNOLOGY, CHINESE ACADEMY …, priority 2023, published 2026).

How the values were obtained:
[1] = tested on: cancer cells HeLa and 4T1 and normal cells HEK293; assay: Selectivity for tumor cells (red fluorescence intensity in cancer vs normal cells); type: cell-based; details: 4T1 vs HEK293, 1 μM, 30 min; for fluorescence intensity, cancer cells vs normal cells, complete medium / selectivity for cancer cells: complete medium (serum-containing)
Procedure: (§1) Cancer cells HeLa and 4T1 and normal cells HEK293 were cultured using a complete medium (DMEM medium containing 10% fetal bovine serum and 1% penicillin/streptomycin) in a saturated-humidity incubator at 37 °C and 5% CO2, and passaged once every 2 to 3 days.
(§2) When the cells grew to the logarithmic phase, they were transferred to confocal dishes or 96-well plates: Cells fully grown in a T25 cell culture flask were first washed with PBS, and then digested with 1 mL of trypsin for 1 to 2 minutes (0.25% trypsin for HeLa and 4T1, and 0.025% trypsin for HEK293). After removal of trypsin, fresh medium was added, and the cells were pipetted uniformly and counted, whose density was controlled by the amount of medium added. (1) The cells were inoculated into a confocal glass-bottom culture dish, and was cultured in a 5% CO2 incubator.When the cells grew to a coverage of ~70% they were used for confocal imaging experiments. (2) The cells were inoculated into a low-attachment U-bottom 96-well plate, and when the diameter of the cell spheroids reached ~800 μm, the cell spheroids were used for antitumor evaluation.
After three groups of cancer cells HeLa and 4T1 and normal cells HEK293 individually grown on confocal glass-bottom culture dishes prepared in Test example 1 were washed with PBS, one group was incubated in complete medium (serum-containing) with 1 μM of the compound synthesized in Example 1 in the dark for 30 min, and the second group was incubated in complete medium with 1 μM of (E)-4-(2-(5-methoxy-1H-indol-3-yl)vinyl)-1-n-octylquinolinium iodide in the dark for 30 min, and the third group was incubated in DMEM (serum-free)with 1 μM of the compound synthesized in Example 1 in the dark for 30 min. After PBS washing, all the cells were placed in DMEM, and differences in red fluorescence intensity from the three groups of tumor cells and normal cells were observed and recorded under a laser scanning confocal microscope (EX561 nm, EM600-700 nm).

HeLa cells = assay: Verification of how compound enters cells (37 °C vs 4 °C); type: cell-based; details: 2 μM, 30 min, complete medium; for way of entering cells: 37 °C vs 4 °C
Procedure: as §1, §2
After two groups of HeLa cells grown on confocal glass-bottom culture dishes prepared in Test example 1 were washed with PBS, one group was incubated at 37 °C in the dark for 30 min in complete medium with 2 μM of the compound synthesized in Example 1, and the other group was incubated at 4 °C for the same period in complete medium with 2 μM of compound synthesized in Example 1. After PBS washing, the incubated cells were placed in DMEM, and red fluorescence distribution in cells from the two groups was observed and recorded using a laser scanning confocal microscope (EX561 nm, EM600-700 nm).
After two groups of HeLa cells grown on confocal glass-bottom culture dishes prepared in Test example 1 were washed with PBS, one group was incubated in complete medium with 2 μM of (E)-4-(2-(5-methoxy-1H-indol-3-yl)vinyl)-1-n-octylquinolinium iodide in the dark at 37 °C for 30 min, and the other group was incubated in complete medium solution with 2 μM (E)-4-(2-(5-methoxy-1H-indol-3-yl)vinyl)-1-n-octylquinolinium iodide in the dark at 4 °C for the same period. After PBS washing, the cells were placed in DMEM, and red fluorescence in cells from the two groups was observed and recorded using a laser scanning confocal microscope (EX561 nm, EM600-700 nm).

[2] = tested on: HeLa cells (mitochondria and lysosomes); assay: Localization observation in HeLa cells (colocalization with MitoTracker Green and LysoBrite NIR); type: cell-based; details: 2 μM, 30 min, confocal colocalization
Procedure: as §1
as §2, with “evaluation. […]” for “evaluation.”

HeLa cells (autophagy) = assay: Imaging of autophagic vacuoles and autophagosomes in HeLa cells (Cell-Tracker Green CMFDA); type: cell-based; details: 10 μM, 90 min
Procedure: as §1, §2
Two groups of HeLa cells grown on confocal glass-bottom culture dishes prepared in Test example 1 were firstly washed with PBS. Then one group was incubated in the dark for 90 min in complete medium with 10 μM of the compound synthesized in Example 1, and the other group was incubated in complete medium with an equal amount of DMSO as a blank control sample. Subsequently, the cells were incubated in DMEM with 5 μM green live-cell tracking probe (Cell-Tracker Green CMFDA) for 30 min. After PBS washing, the cells were placed in DMEM and observed under a laser scanning confocal microscope. The fluorescence distribution of Cell-Tracker Green in cells from the two groups was recorded.
After HeLa cells grown on confocal glass-bottom culture dish prepared in Test example 1 was washed with PBS, they were incubated in complete medium with 10 μM of the compound synthesized in Example 2 in the dark for 90 min, and then incubated in DMEM with 5 μM green live-cell tracking probe (Cell-Tracker Green CMFDA) in the dark for 30 min followed by PBS washing. The cells were placed in DMEM and observed under a laser scanning confocal microscope. The fluorescence distribution of Cell-Tracker Green in the cells was recorded.

[3] = tested on: HeLa cells (mitochondrial membrane potential); assay: Changes in mitochondrial membrane potential of HeLa cells (rhodamine 123); type: cell-based; details: 10 μM, 30 min, vs DMSO blank control
Procedure: as §1
as §2, with “(2) The cells were inoculated into a low-attachment U-bottom 96-well plate, and when the diameter of the cell spheroids reached ~800 μm, the cell spheroids were used for antitumor evaluation.” left out
Two groups of HeLa cells grown on confocal glass-bottom culture dishes prepared in Test example 1 were both incubated with 5 μM rhodamine 123 in darkness in a CO2 incubator for 30 min and then washed with PBS. […] After PBS washing, the cells were observed under a laser scanning confocal microscope, and the changes of the fluorescence brightness from rhodamine 123 in the two groups of cells were recorded.

bovine serum albumin = bovine serum albumin (Bos taurus, UniProt P02769); assay: Binding constant with albumin (fluorescence quenching, double-logarithmic fitting)
Sequence of bovine serum albumin (P02769 25-607): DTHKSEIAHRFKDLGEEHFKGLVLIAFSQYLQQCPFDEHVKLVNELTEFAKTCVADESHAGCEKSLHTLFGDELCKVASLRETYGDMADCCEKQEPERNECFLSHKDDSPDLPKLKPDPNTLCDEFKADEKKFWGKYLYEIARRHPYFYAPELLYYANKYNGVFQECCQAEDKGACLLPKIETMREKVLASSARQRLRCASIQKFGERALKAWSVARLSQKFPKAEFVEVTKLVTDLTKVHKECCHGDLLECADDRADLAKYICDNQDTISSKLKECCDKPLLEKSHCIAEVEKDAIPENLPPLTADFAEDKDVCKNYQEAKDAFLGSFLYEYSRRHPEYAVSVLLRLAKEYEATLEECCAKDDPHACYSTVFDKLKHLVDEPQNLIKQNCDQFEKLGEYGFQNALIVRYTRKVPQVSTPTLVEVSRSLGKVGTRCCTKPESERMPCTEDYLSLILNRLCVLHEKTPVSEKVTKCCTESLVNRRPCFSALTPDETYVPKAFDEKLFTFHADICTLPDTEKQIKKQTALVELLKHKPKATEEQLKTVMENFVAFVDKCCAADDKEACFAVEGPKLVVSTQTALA
Procedure: The compound synthesized in Example 1 was added at different concentrations (0 to 15 μM) to PBS containing bovine serum albumin, and then fluorescence spectra of bovine serum albumin were measured using a fluorescence spectrometer (280 nm EX).

[4] = tested on: HeLa cells (fusion of mitochondria and lysosomes); assay: Fusion of mitochondria and lysosomes in HeLa cells (MitoTracker Green / LysoBrite NIR); type: cell-based; details: compound 10 μM in complete medium, ~5 h
Procedure: as §1
as §2, with “(2) The cells were inoculated into a low-attachment U-bottom 96-well plate, and when the diameter of the cell spheroids reached ~800 μm, the cell spheroids were used for antitumor evaluation.” left out
After two groups of HeLa cells grown on confocal glass-bottom culture dishes prepared in Test example 1 were washed with PBS, both were incubated with 1 μM mitochondrial green fluorescent probe (MitoTracker Green) in the dark for 30 min, followed by 30 min incubation with 1 μM lysosomal deep-red probe (LysoBrite NIR). […] The fluorescence distribution of MitoTracker Green and LysoBrite NIR in cells from the two groups was recorded.

[5] = tested on: HeLa cells (lysosomal pH); assay: Changes in lysosomal pH of HeLa cells (LysoSensor Green DND-189); type: cell-based; details: 10 μM, 30 min, vs DMSO blank control
Procedure: as §1
as §2, with “(2) The cells were inoculated into a low-attachment U-bottom 96-well plate, and when the diameter of the cell spheroids reached ~800 μm, the cell spheroids were used for antitumor evaluation.” left out
Two groups of HeLa cells grown on confocal glass-bottom culture dishes prepared in Test example 1 were incubated with 2 μM lysosomal green fluorescent probe (LysoSensor Green DND-189) in the dark for 30 min in a CO2 incubator, and then washed with PBS. […] The changes in the fluorescence brightness of LysoSensor Green in cells from the two groups were recorded.

HEK293 cell spheroids = assay: Changes in growth of HEK293 cell spheroids; type: cell-based; details: 10 μM, 24 h
Procedure: as §1
as §2, with “evaluation. […]” for “evaluation.”

HeLa cell spheroids = assay: Changes in growth of HeLa cell spheroids; type: cell-based; details: 10 μM, 24 h
Procedure: as §1, §2
After two groups of HEK293 cell spheroids and two groups of HeLa cell spheroids prepared in Test example 1 were photographed under a microscope, one group of HEK293 and HeLa cell spheroids was incubated in a complete medium containing 10 μM of the compound synthesized in Example 1 as an experimental administration group, and the other group of HEK293 and HeLa cell spheroids was incubated in a complete medium containing the same volume of DMSO as a blank control. After 24 h, photographs were taken again using the microscope to observe changes in morphology and size of the cell spheroids.

With `CCCCCCCC[n+]1ccc(/C=C/c2c[nH]c3ccc(OC)cc23)c2ccccc21.[I-]` [(E)-4-(2-(5-methoxy-1H-indol-3-yl)vinyl)-1-n-octylquinolinium iodide, reference compound] the “fluorescence intensity, cancer cells vs normal cells, complete medium” value [1] was “no significant difference in fluorescence intensity between cancer cells and normal cells”, the “selectivity for cancer cells” value [1] was “non-selective for cancer cells” and the “way of entering cells” value (HeLa cells) was “enters cells mainly via free diffusion rather than active transport”. For the same compound, the “red fluorescence at 37 °C compared with 4 °C” value (HeLa cells) was “no obvious difference in fluorescence intensity”.
With `CCCCCCCCCCCC[n+]1ccc(/C=C/c2c[nH]c3ccc(OC)cc23)c2ccccc21.[I-]` [Example 1, (E)-4-(2-(5-methoxy-1H-indol-3-yl)vinyl)-1-n-dodecylquinolinium iodide] the “distribution of compound fluorescence in organelles” value [2] was “distributed in the two organelles, mitochondria and lysosomes”, the “autophagy activation / modulation” value (HeLa cells (autophagy)) was “can activate autophagy” and the “generation of vacuoles (autophagic vacuoles/vesicles and autophagosomes) in the cytoplasm” value (HeLa cells (autophagy)) was “a large number of vacuoles (autophagic vacuoles and autophagosomes) are generated”. The “fluorescence of rhodamine 123” value [3] was “greatly weakened”, the mitochondrial membrane potential [3] was “decreases significantly” and the “fluorescence peak of bovine serum albumin” value (bovine serum albumin; PBS, compound 0 to 15 μM, 280 nm EX) was “gradually decreases”. The affinity for albumin (bovine serum albumin; bovine serum albumin in PBS) was “high affinity for albumin”, the “binding constant with albumin” value (bovine serum albumin; bovine serum albumin in PBS, compound 0 to 15 μM, 280 nm EX, double-logarithmic fit) was 1.35×10^8 and the “fusion of mitochondria and lysosomes / autophagic flux” value [4] was “can prevent fusion of cellular mitochondria and lysosomes and block autophagic flux”. The “overlap of mitochondrial and lysosomal fluorescence” value [4] was “almost no overlap”, the “fluorescence of LysoSensor Green” value [5] was “greatly weakened” and the “lysosomal pH” value [5] was “increases significantly”. The “fluorescence intensity, cancer cells vs normal cells, serum-free” value ([1]; DMEM (serum-free)) was “almost no difference in fluorescence intensity between cancer cells and normal cells”, the “fluorescence intensity, cancer cells vs normal cells, complete medium” value [1] was “the fluorescence intensity of cancer cells is significantly higher than the fluorescence intensity of normal cells” and the “selectivity for cancer cells” value [1] was “high selectivity for cancer cells”. For the same compound, the “entry into cancer cells vs normal cells, serum-free” value ([1]; serum-free medium) was “no significant difference”, the “growth inhibition of normal HEK293 cell spheroids” value (HEK293 cell spheroids) was “does not cause significant growth inhibition” and the “size and shape of HEK293 cell spheroids” value (HEK293 cell spheroids; vs blank control) was “do not change significantly compared with the blank control”. For the same compound, the “way of entering cells” value (HeLa cells) was “enters cells mainly via active transport”, the “red fluorescence at 37 °C compared with 4 °C” value (HeLa cells) was “significantly stronger” and the “cell debris near HeLa cell spheroids” value (HeLa cell spheroids) was “many cell debris appear near the cell spheroids”. For the same compound, the “growth of cancerous HeLa cell spheroids” value (HeLa cell spheroids) was “significantly inhibits and disrupts the growth”, the “size of HeLa cell spheroids” value (HeLa cell spheroids; vs blank control and before administration) was “much smaller than those in the blank control as well as than the cell spheroids before drug administration” and the “selective killing effect on cancer cells” value (HeLa cell spheroids; HeLa vs HEK293 cell spheroids) was “significant selective killing effect on cancer cells”.
In the case of `CCCCCCCCCCCC[n+]1ccc(/C=C/c2c[nH]c3ccccc23)c2ccccc21.[I-]` [Example 2, (E)-4-(2-(1H-indol-3-yl)vinyl)-1-n-dodecylquinolinium iodide], the “distribution of compound fluorescence in organelles” value [2] is reported as “distributed in the two organelles, mitochondria and lysosomes”, the “autophagy activation / modulation” value (HeLa cells (autophagy)) is reported as “autophagy-modulating activity” and the “generation of vacuoles (autophagic vacuoles/vesicles and autophagosomes) in the cytoplasm” value (HeLa cells (autophagy)) is reported as “a large number of vacuoles (autophagic vesicles and autophagosomes) are generated”.
